Measurements taken from patent US20150119601A1, “MONOFUNCTIONAL MCR + 3-HP DEHYDROGENASE” (OPX Biotechnologies, Inc., priority 2013, published 2015).
Like-named read-outs stand apart in the source and are kept apart here.

Legend:
E. coli strains = assay: Growth inhibition of E. coli strains by 3-HP; type: cell-based; conditions: E. coli strains grown in the presence of 3-HP
E. coli ACCase = E. coli ACCase (Escherichia coli, UniProt P0A9Q5+P0ABD5+P0ABD8+P24182); conditions: for inhibition of E. coli ACCase by the salts: FIG. 4; for decrease of ACCase enzyme activity: relative to control (FIG. 4)
Chain of E. coli ACCase (P0ABD5 whole entry): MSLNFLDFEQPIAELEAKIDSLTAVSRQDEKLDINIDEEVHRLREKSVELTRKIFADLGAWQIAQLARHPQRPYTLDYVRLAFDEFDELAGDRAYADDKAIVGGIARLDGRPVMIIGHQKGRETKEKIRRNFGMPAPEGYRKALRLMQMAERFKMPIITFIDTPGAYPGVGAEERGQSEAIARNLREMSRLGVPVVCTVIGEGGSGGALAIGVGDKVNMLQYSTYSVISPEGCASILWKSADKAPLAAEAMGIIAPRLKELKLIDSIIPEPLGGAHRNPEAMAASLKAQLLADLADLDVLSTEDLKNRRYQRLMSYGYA
Chain of E. coli ACCase (P0A9Q5 whole entry): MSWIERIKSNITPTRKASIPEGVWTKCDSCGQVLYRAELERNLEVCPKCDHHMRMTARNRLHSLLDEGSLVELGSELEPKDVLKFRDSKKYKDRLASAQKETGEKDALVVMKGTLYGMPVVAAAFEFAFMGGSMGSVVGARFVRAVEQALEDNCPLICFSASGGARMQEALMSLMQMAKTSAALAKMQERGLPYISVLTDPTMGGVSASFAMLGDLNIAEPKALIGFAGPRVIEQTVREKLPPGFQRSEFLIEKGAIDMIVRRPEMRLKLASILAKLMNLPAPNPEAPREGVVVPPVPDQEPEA
Protocol: Levels of greater than 0.66M (60 g/L) are expected to be present for commercially viable commercial production of 3-HP.
Each gene was amplified by PCRs with Pfu Ultra II HS using the manufacturer's instructions, and the PCR products were purified using the Zymo PCR Cleanup kit. Concentrations of products were measured using the Nanodrop spectophotometer. The Gibson Assembly kit (NEB) was used to construct plasmids expressing the ACCase subunit genes as directed by the manufacturer. The effect of NH4-3-HP and NH4Cl on H. elongata ACCase was tested and compared to the E. coli ACCase.

H. elongata ACCase = assay: Salt effect on H. elongata ACCase compared to E. coli ACCase; type: biochemical, Halomonas elongata; conditions: FIG. 4
Protocol: Concentrations of products were measured using the Nanodrop spectophotometer.

[1] = salts of 3-HP levels near 0.66M

Compound | 3-HP level at which growth inhibition is demonstrated (E. coli strains) [g/L] | inhibition of E. coli ACCase by the salts (E. coli ACCase) | decrease of ACCase enzyme activity (E. coli ACCase; [1]) | effect of the salts on ACCase from the halophile (H. elongata ACCase) | decrease of ACCase enzyme activity (E. coli ACCase; salt levels near 0.44M)
O=C(O)CCO [3-HP, 3-hydroxypropionic acid] | ≥ 20 |  |  |  | 
N.O=C(O)CCO [NH4-3-HP] |  | significantly inhibited | approximately 80% | less affected | 
Cl.N [NH4Cl] |  | significantly inhibited |  | less affected | approximately 80%
O=C([O-])CCO.[Na+] [Na-3-HP] |  |  | approximately 80% |  | 
[Cl-].[Na+] [NaCl] |  |  |  |  | approximately 80%
